Data from publication PMC9981512, “Thin film hydration versus modified spraying technique to fabricate intranasal spanlastic nanovesicles for rasagiline mesylate brain delivery: Characterization, statistical optimization, and in vivo pharmacokinetic evaluation” (Drug Delivery and Translational Research, 2022).
Structures can show the parent of a compound that is named as a salt. Where two headings read alike, the source gives them in different places.

Columns and labels:
[1] = In vitro release of RM, modified Franz diffusion cells with dialysis membrane, simulated nasal fluid; assay type: physicochemical; conditions: simulated nasal fluid pH 6.5, 37 °C, 50 rpm
Method: The in vitro release of RM from the optimized systems was investigated using modified Franz diffusion cells (Franz diffusion cell with dialysis membrane). In a few words, an exact volume of each optimized system was placed in the donor cell, and the dialysis process was performed against 50 mL of simulated nasal fluid (SNF; CaCl2.2H2O 0.32 mg/mL, NaCl 7.45 mg/mL, KCl 1.29 mg/mL, pH 6.5) maintained at 37 °C while stirring at 50 rpm. Three milliliter sample was withdrawn at each time interval (0.25, 0.5, 1, 1.5, 2, 3, 4, 6, 8, 10 and 12 h) and replaced with equal volumes of drug free SNF [39]. The amount of RM in each sample was measured spectrophotometrically at λmax 265 nm. The in vitro release profiles of the two optimized systems were compared to RM aqueous solution profile. Furthermore, the mean dissolution time (MDT) was calculated for both systems following Eq. (2):2 MDT=∑j=1ntj∗ΔMj/∑j=1nΔMj where j is the sample number, tj* is the midpoint time between t and tj-1 that can be calculated by (t + tj-1/2), n is the number of release samples, and ∆Mj is the additional amount released between t and tj-1. The higher the MDT value, the slower the drug release rate.

[2] = In vivo pharmacokinetics and brain targeting in rats, LC-MS/MS of brain homogenate and plasma; conditions: rat, RM in brain, intravenous, 0.05 mg/kg/day
Method: In order to evaluate the in vivo performance of the selected MST 2, an in vivo pharmacokinetics study was performed to measure the bioavailability and brain-targeting ability of the selected system after intranasal administration into rats. The study protocol was previously approved by the research ethics committee for the experimental and clinical studies at the Faculty of Pharmacy Cairo University with approval code (PI 2680). Briefly, forty-eight rats were divided into two groups (n = 24), and each group was divided into eight subgroups (n = 3). The average weight of the rats was 180 gm, and they were subjected to 12-h cycles of light/darkness. They were kept in cages with free access to food and water. The relative humidity was maintained in range 40–60%, and the temperature ranged from 20 to 25 °C during the experiment.
The first group was administered the optimized MST 2 equivalent to 0.05 mg/kg/day of RM [44] intranasally (IN) using a polyethylene tube which was attached to Hamilton syringe, whereas the second group was administered the same dose of an intravenous (IV) RM aqueous solution through the tail vein. Blood samples were collected from the rats at specified time intervals (0.25, 0.5, 1, 1.5, 2, 4, 8, and 12 h) via the puncture of lateral vesicular vein, centrifuged at 4000 rpm for 15 min, and separated to obtain the plasma that was then frozen at –80 °C until further investigations. Additionally, six rats (three of each subgroup) were anaesthetized and sacrificed to separate the brain tissues at 0.5, 1, 2, 4, and 8 h. The brain tissues were washed twice with normal saline and then weighed. An equal weight of normal saline was added to each brain sample, which was then homogenized (Heidolph DIAX 900, Heidolph Instruments, Schwabach, Germany) and kept frozen at – 80 °C until analysis. RM levels in plasma samples and brain homogenates were measured by a validated liquid chromatography-mass spectrometry (LC–MS/MS) method.
Calibration curves of RM in plasma and brain homogenate were constructed using clonazepam as internal standard (IS). Briefly, specific volumes of RM stock solution were mixed with one hundred microliter of clonazepam stock solution (100 ng/mL) and then spiked into 0.5 mL plasma or brain homogenate to obtain the following concentrations: 0.1, 1, 10, 20, 100, and 1000 ng/mL. For RM extraction from the samples, 0.5 mL of plasma samples or brain homogenates was mixed with 100 µL of clonazepam solution as IS and 4 mL of ethyl acetate to precipitate the proteins followed by vortexing (Stuart SA8, BiBBY Sterlin Ltd., UK) for 5 min and centrifugation for 10 min at 3000 rpm. The supernatant was transferred to a new tube to evaporate the organic solvent under vacuum using a vacuum concentrator (Eppendorf 5301, Hamburg, Germany). The obtained dry residue was reconstituted in 0.5 mL of the mobile phase (acetonitrile: 0.1% formic acid solution in water at a ratio (80:20 v/v)) after then, 9 µL of the obtained solution was injected into (LC–MS/MS) for analysis.
The analysis of RM in plasma samples and brain homogenates was done by LC–MS/MS (Shimadzu CBM20A, Japan) fitted with mass spectrometer AB Sciex 4000 (Sciex Instruments, USA) and auto-sampler (Shimadzu SIL20A, Japan). The mass spectrometer was equipped with turbo ion spray having a positive polarity with temperature set at 500 °C. The samples were analyzed by injecting aliquots of 9 µL, and the mobile phase flow rate was adjusted at 0.8 mL/min. The transition was from 172.036 to 117.000 m/z for RM and from 316.024 to 270 m/z in case of clonazepam. The analysis of the obtained results was done using Analyst software (version 1.6.3, Sciex Instruments, Framingham, USA).
Non-compartmental pharmacokinetic model was applied to analyze RM plasma and brain levels using Kinetica software (version 2000, Arlington, USA). […]

[3] = after oral administration; cited from earlier work

mean dissolution time (MDT) [1]: 0.333 ± 0.0991 h
time of complete release of RM [1]: 4 h
AUC(0-inf) [2]: 28 ± 1.84 ng·h/mL
Cmax [2]: 15.8 ± 0.34 ng/mL
Tmax [2]: 0.5 h
k el ([2]; read-out: K (hr^−1) elimination rate constant (converted)): 0.377 h⁻¹
MRT ([2]; read-out: MRT (hr) mean residence time): 2.27 ± 0.71 h
half-life ([2]; read-out: T1/2 half (converted)): 1.83 ± 0.24 h
Structure (SMILES): C#CCN[C@@H]1CCc2ccccc21 [RM, Rasagiline mesylate]
half-life [3]: 1.5 to 3.5 h
time to reach maximum concentration in plasma [3]: ≤ 1 h
